For one experiment, the target named is HDAC4 (Homo sapiens, UniProt P56524). Put plainly: HDAC enzyme inhibition assay. Format: biochemical. Also noted: purchased BPS Bioscience 50004. The protocol: Bio-Rad) to Immobilon-FL PVDF membranes (Catalog# IPFL00005, Mill ipore Merck, Burlington, MA, USA) at 1.0 A for 30 min and treated with 5% milk-powder solution for 1 h at room temperature […]
Signaling Technology) antibody solutions in 1:1000 –1:8000 dilutions at 4 °C overnight. […]
Significance testing was performed with a one -way analysis […]
compared to a reference mean value.
2.7. HDAC Enzyme Inhibition Assay […]
In vitro inhibitory activities against HDAC4 were measured using a previously published protocol with slight modifications. For test compounds and controls, serial dilutions of the respective DMSO stock solution in DMSO were prepared, and 1.0 μL /well of this serial dilution were transferred […]
into OptiPlate-96 black microplates (PerkinElmer, Waltham, […], USA). A volume of 4 µL/well assay […]
BSA) was added. In the case of HDAC1, 2, and 6, a volume of 35 μL/well of the fluorogenic substrate […]
The total assay volume of 50 μL (max. 2 % DMSO) was incubated at 37 °C for 90 min. Subsequently, 50 μL /well of trypsin (0.4 mg/mL) in trypsin buffer (50 mM Tris−HCl, pH 8.0, 100 mM NaCl) was added, followed by additional 30 min of incubation at […]
OPTIMA microplate reader (BMG labtech, Ortenburg, Germany). The half maximal inhibitory concentration (IC50) was determined by plotting dose response curves and nonlinear regression with GraphPad Prism (GraphPad Software).
2.8. […]

The target in a further experiment is HDAC2 (Homo sapiens, UniProt Q92769). The experiment in a line: Immunoblot HDAC2 degradation in MM.1S cell lysates. The format is cell-based. On the set-up: endogenous in cells; host or cells: MM.1S. The note with it: MM1.S, MM.1S cells, 24 h, read-out: maximal degradation (Dmax) HDAC2. The protocol:
Figure 6 Examination of HDAC isoform degradation. MM.1S cells were treated with the indicated compounds (10 μM) or vehicle (DMSO) for 24 h. HDAC1, 2, 4, and 6 levels were analyzed by immunoblotting. (A) Representative images from a total of n=3 biological replicates. […]
The cell lysis was performed as descripted in 3.2. Simple Western Immunoassay. Samples were denatured by Laemmli 2× Concentrate (Catalog# S3401-10VL, Sigma-Aldrich) for 5 min at 95 °C, and Precision Plus Protein Unstained Standard was used as molecular weight marker (Catalog# 1610363, Bio-Rad, Hercules, CA, USA). SDS-PAGE was performed with 10 or 12% Mini-PROTEAN TGX Stain-Free Gel (Catalog# 458035, Bio -Rad) at 200 V for 50 min (Catalog# 458035, Bio -Rad).
Afterwards, proteins were transferred with the Trans -Blot Turbo Transfer System (Catalog# 1704150, Bio-Rad) to Immobilon-FL PVDF membranes (Catalog# IPFL00005, Mill ipore Merck, Burlington, MA, USA) at 1.0 A for 30 min and treated with 5% milk-powder solution for 1 h at room temperature under slight agitation. […] The ChemiDoc XRS+ System (Catalog# 1708265 , Bio-Rad) was used for detection and Image Lab Software 6.1 (Bio-Rad) for quantification. […]
Background: A western blot detects proteins with antibodies after separation by electrophoresis.

Each structure is given as a SMILES string.

A word on the IC50: it is the concentration that inhibits the measured activity by half. Lower therefore signals greater potency. As a reminder, the Dmax is the greatest extent of degradation seen.

Sequence of HDAC2 (Q92769 whole entry, canonical isoform): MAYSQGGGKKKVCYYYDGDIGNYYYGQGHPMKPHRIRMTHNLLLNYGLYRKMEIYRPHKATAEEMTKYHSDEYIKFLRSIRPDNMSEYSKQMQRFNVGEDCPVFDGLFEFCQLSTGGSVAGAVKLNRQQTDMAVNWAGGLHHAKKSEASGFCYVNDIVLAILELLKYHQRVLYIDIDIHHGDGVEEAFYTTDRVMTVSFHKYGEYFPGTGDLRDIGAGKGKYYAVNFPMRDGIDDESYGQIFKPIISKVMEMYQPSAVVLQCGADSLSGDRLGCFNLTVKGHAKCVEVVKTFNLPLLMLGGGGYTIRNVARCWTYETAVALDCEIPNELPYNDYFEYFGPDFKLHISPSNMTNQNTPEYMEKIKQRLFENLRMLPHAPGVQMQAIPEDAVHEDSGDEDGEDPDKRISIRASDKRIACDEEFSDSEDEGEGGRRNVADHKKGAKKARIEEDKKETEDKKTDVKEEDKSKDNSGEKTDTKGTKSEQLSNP
Sequence of HDAC4 (P56524 627-1084 limits assumed): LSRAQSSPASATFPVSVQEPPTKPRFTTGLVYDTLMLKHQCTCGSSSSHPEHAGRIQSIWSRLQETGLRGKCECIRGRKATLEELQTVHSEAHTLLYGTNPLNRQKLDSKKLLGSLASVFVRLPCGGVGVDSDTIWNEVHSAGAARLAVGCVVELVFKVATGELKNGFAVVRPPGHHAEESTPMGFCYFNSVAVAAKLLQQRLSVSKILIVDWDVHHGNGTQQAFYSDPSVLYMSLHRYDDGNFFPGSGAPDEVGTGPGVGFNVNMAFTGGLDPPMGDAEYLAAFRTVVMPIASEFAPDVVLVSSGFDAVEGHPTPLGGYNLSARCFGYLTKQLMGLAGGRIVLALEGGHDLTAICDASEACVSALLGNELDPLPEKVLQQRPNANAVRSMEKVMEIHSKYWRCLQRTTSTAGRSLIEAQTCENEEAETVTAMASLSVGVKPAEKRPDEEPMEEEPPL

Take `O=C(CCCCCCNC(=O)c1ccc(NC(=O)CCCCCCCCCCCN(C(=O)CCl)C(C(=O)NCc2ccccc2)c2ccc(Cl)c(Cl)c2)cc1)NO` (stereo not shown) [Compound 1j]: half-maximal inhibition against HDAC4 (IC50) was put at 12.4 ± 1.5 µM. In addition, the Dmax at 10 µM at HDAC2 is 71 to 76%.
Take `O=C(CCCCCCNC(=O)c1ccc(N(C(=O)CCl)C(C(=O)NCc2ccccc2)c2ccc(Cl)c(Cl)c2)cc1)NO` (stereo not shown) [Compound 2]: inhibition at HDAC4 was half-maximal at 3.26 ± 0.08 µM (IC50). Besides, the Dmax at 10 µM at HDAC2 stood at 51%.

The record behind these values is paper PMC12091851, “Replacing a Cereblon Ligand by a DDB1 and CUL4 Associated Factor 11 (DCAF11) Recruiter Converts a Selective Histone Deacetylase 6 PROTAC into a Pan‐Degrader” (Chemmedchem, 2025).
